# PubChem BioAssay (NCI)
#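 Briefly, cells in 96-well plates were exposed to five compound concentrations for 48 h, and endpoints were estimated by linear interpolation. GI50: concentration for 50% inhibition of growth. At the TGI there is no net growth.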
# Experiments:
# Experiment in all cases: NCI anticancer screen, dose series, 48 h
# IGROV1 ovarian = test system: IGROV1 ovarian
# NCI/ADR-RES ovarian = test system: NCI/ADR-RES ovarian
# COLO 205 colon = test system: COLO 205 colon
# ACHN renal = test system: ACHN renal
# SF-268 CNS = test system: SF-268 CNS
# SF-295 CNS = test system: SF-295 CNS
# A498 renal = test system: A498 renal
# SNB-75 CNS = test system: SNB-75 CNS
# DU-145 prostate = test system: DU-145 prostate
# HCC-2998 colon = test system: HCC-2998 colon
Compound,TGI (IGROV1 ovarian),TGI (NCI/ADR-RES ovarian),TGI (COLO 205 colon),TGI (ACHN renal),TGI (SF-268 CNS),TGI (SF-295 CNS),TGI (A498 renal),TGI (SNB-75 CNS),TGI (DU-145 prostate),GI50 (IGROV1 ovarian),GI50 (NCI/ADR-RES ovarian),GI50 (COLO 205 colon),GI50 (ACHN renal),GI50 (SF-268 CNS),GI50 (SF-295 CNS),GI50 (SNB-75 CNS),GI50 (DU-145 prostate),GI50 (HCC-2998 colon),TGI (HCC-2998 colon),GI50 (A498 renal)
Fc1c(F)c(C(F)(F)F)c(F)c(F)c1N/N=C/c1cn(Cc2ccccc2)c2ccccc12,> 100 µM,59.1 µM,26.8 µM,81.7 µM,> 100 µM,36.2 µM,88.6 µM,62.4 µM,> 100 µM,,,,,,,,,,,
COc1cc2c(cc1OCCCN1CCN(c3ncnc4ccccc34)CC1)N=CC1CCCN1C2=O (stereo not given),0.0269 µM,7.11 µM,0.0446 µM,0.564 µM,0.625 µM,0.0545 µM,0.0164 µM,0.168 µM,0.311 µM,12.6 nM,373 nM,20.3 nM,42.6 nM,33.9 nM,25.8 nM,35.7 nM,27.8 nM,19 nM,0.0381 µM,
C[C@]12CCC(=O)C=C1CC[C@@H]1[C@@H]2[C@@H](O)C[C@@]2(C)[C@H]1CC[C@]2(O)C(=O)COC(=O)C1CCCC1,> 100 µM,> 100 µM,> 100 µM,> 100 µM,> 100 µM,> 100 µM,> 100 µM,> 100 µM,> 100 µM,,,,,,,,,,> 100 µM,
COc1ccc2c(c1)CC[C@@H]1[C@@H]2CC[C@]2(C)C(=O)/C(=C/c3ccc(O)c(OC)c3)C[C@@H]12,> 100 µM,> 100 µM,> 100 µM,> 100 µM,,> 100 µM,> 100 µM,,> 100 µM,,,,,,,,,,75.5 µM,
COc1ccc(C2C(C=O)C(N3CCN(C)CC3)=Nc3nc4ccccc4n32)cc1 (stereo not given),31.7 µM,53.7 µM,36 µM,41.8 µM,51.6 µM,50.9 µM,29.1 µM,31.3 µM,49.3 µM,,,,,,,,,,33.9 µM,
O=C(c1cccs1)N(Cc1cccnc1)C(=S)N(Cc1cccnc1)C(=O)c1cccs1,,> 100 µM,> 100 µM,> 100 µM,> 100 µM,> 100 µM,97.4 µM,> 100 µM,> 100 µM,,,,,,,,,,> 100 µM,
NC(CC(=O)O)(Cc1ccccc1)C(=O)O (stereo not given),> 100 µM,> 100 µM,> 100 µM,> 100 µM,,> 100 µM,> 100 µM,> 100 µM,> 100 µM,,,,,,,,,,,
Cn1c(=O)c2c(nc(NCCNc3nc4c(c(=O)n(C)c(=O)n4C)n3C)n2C)n(C)c1=O,> 100 µM,> 100 µM,,> 100 µM,> 100 µM,> 100 µM,> 100 µM,> 100 µM,> 100 µM,,,,,,,,,,> 100 µM,
COc1ccc(C2=NN(C(=O)c3cccnc3)C(O)(c3cc(F)c(Cl)cc3Cl)C2)cc1OC (stereo not given),30.5 µM,49.9 µM,27.8 µM,57.9 µM,39.8 µM,39 µM,,62.9 µM,> 100 µM,,,,,,,,,,,
Nc1nc(=O)n(CC(O)CO)s1 (stereo not given),> 100 µM,,> 100 µM,> 100 µM,> 100 µM,> 100 µM,> 100 µM,> 100 µM,,,,,,,,,,,> 100 µM,
O=C(NNC(=O)c1nsc2ccccc12)c1ccc(Cl)cc1,> 100 µM,,66 µM,> 100 µM,41.3 µM,,,15.6 µM,,,,,,,,,,,31 µM,
Cc1ccc(SSCCCCCS(=O)O)cc1,,,,> 100 µM,36.1 µM,,52 µM,63.1 µM,,,,,,,,,,,> 100 µM,
COc1ccc2nc3ccccc3c(NCc3ccc(C)cc3)c2c1,6.34 µM,4.98 µM,3.78 µM,3.03 µM,5.44 µM,2.74 µM,3.05 µM,2.85 µM,7.68 µM,2190 nM,1790 nM,1650 nM,1580 nM,2270 nM,1340 nM,1490 nM,2640 nM,1730 nM,3.26 µM,1650 nM
COc1ccc(C)cc1Nc1nnc(-c2ccc(N)cc2)s1,> 100 µM,> 100 µM,> 100 µM,> 100 µM,> 100 µM,> 100 µM,> 100 µM,> 100 µM,> 100 µM,,,,,,,,,,> 100 µM,
O=C(COc1ccc(Cl)cc1Cl)N/N=C/C=C/c1ccc([N+](=O)[O-])o1,6.79 µM,> 100 µM,,> 100 µM,> 100 µM,> 100 µM,> 100 µM,59.2 µM,,,,,,,,,,,,
N#C[S-].[Ce+3].c1cnc2c(c1)ccc1cccnc12.c1cnc2c(c1)ccc1cccnc12.c1cnc2c(c1)ccc1cccnc12,> 100 µM,,13.4 µM,11.7 µM,,1.45 µM,14.5 µM,22.2 µM,,,,,,,,,,,18.9 µM,
CC(=O)C1=C(O)CCC1=O,> 100 µM,> 100 µM,> 100 µM,> 100 µM,> 100 µM,> 100 µM,,> 100 µM,> 100 µM,,,,,,,,,,> 100 µM,
CCOC(=O)c1c(CN2CCCC2)n(-c2ccccc2)c2cc(Br)c(OC)cc12,45.6 µM,80.8 µM,25.3 µM,35.3 µM,> 100 µM,30.4 µM,19.5 µM,62.5 µM,69.2 µM,,,,,,,,,,,
COc1cc2c(cc1OC)-c1cc3ccc(OC)c(OC)c3c[n+]1CC2,> 100 µM,> 100 µM,> 100 µM,> 100 µM,> 100 µM,> 100 µM,,> 100 µM,> 100 µM,,,,,,,,,,> 100 µM,
